The results in this text go back to PubChem BioAssay AID330 (DTP/NCI, 2004).

“And” between values parts separate entries of the source, which are not always exact repeats. Equal values may be shown once. Inconclusive results and toxic doses are left out. Bridge positions count the residues as written; N and C are the ends. Peptide text beside a SMILES is read from it. I, II: the chains in the order shown.

For the assay, the system named is P388 leukemia ip, CD2F1 mice, survival T/C. The assay is described as follows: NCI In Vivo Anticancer Drug Screen. Data for tumor model P388 Leukemia (intraperitoneal) in CD2F1 (CDF1) mice. The note with it: endpoint: median survival time, higher = longer survival. In short, it runs like this: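 Mice carrying the transplanted tumor received test compound or vehicle. Survival was recorded in each group, and the value is the treated-group measurement divided by that of the vehicle-treated control group.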

[1] abbreviates: dose: 50.0 mg/kg/injection, schedule: Q01DX005 (ip), vehicle: Klucel (hydroxypropylcellulose) (HPC).
[2] abbreviates: dose: 50.0 mg/kg/injection, schedule: Q01DX009 (ip), vehicle: saline.
[3] abbreviates: dose: 100.0 mg/kg/injection, schedule: Q01DX009 (ip), vehicle: saline.
The mark [4] stands for this setting: dose: 6.25 mg/kg/injection, schedule: Q01DX005 (ip), vehicle: Klucel (hydroxypropylcellulose) (HPC).
Where [5] appears, read: dose: 50.0 mg/kg/injection, schedule: Q01DX005 (ip), vehicle: saline with Tween-80.
[6] abbreviates: dose: 100.0 mg/kg/injection, schedule: Q01DX005 (ip), vehicle: saline with Tween-80.
[7] abbreviates: dose: 50.0 mg/kg/injection, schedule: Q01DX009 (ip), vehicle: saline with Tween-80.
The mark [8] stands for this setting: dose: 100.0 mg/kg/injection, schedule: Q01DX009 (ip), vehicle: saline with Tween-80.
[9] abbreviates: dose: 200.0 mg/kg/injection, schedule: Q01DX009 (ip), vehicle: saline with Tween-80.

`OCCNCCN1CCN(CCCN2c3ccccc3Sc3ccc(C(F)(F)F)cc32)CC1`: the T/C by setting is: (dose: 3.12 mg/kg/injection, schedule: Q04DX003 (ip), vehicle: saline) 99 % of control; (dose: 6.25 mg/kg/injection, schedule: Q04DX003 (ip), vehicle: saline) 99 % of control and 101 % of control and 88 % of control; (dose: 12.5 mg/kg/injection, schedule: Q04DX003 (ip), vehicle: saline) 101 % of control and 102 % of control and 90 % of control; (dose: 25.0 mg/kg/injection, schedule: Q04DX003 (ip), vehicle: saline) 104 % of control and 106 % of control and 93 % of control.
In the case of `NC(CSSCC(N)C(=O)NC(Cc1ccccc1)C(=O)O)C(=O)NC(Cc1ccccc1)C(=O)O` (stereo not drawn) (I: H-Cys-Phe-OH / II: H-Cys-Phe-OH; disulfide I:1-II:1; configuration not given here), the T/C was 101 % of control under setting [1]; 97 % of control (dose: 100.0 mg/kg/injection, schedule: Q01DX005 (ip), vehicle: Klucel (hydroxypropylcellulose) (HPC)); 105 % of control (dose: 200.0 mg/kg/injection, schedule: Q01DX005 (ip), vehicle: Klucel (hydroxypropylcellulose) (HPC)).
Turning to `O=C(O)/C=C\C(=O)O`, the T/C by setting is: (dose: 1.5 mg/kg/injection, schedule: Q01DX009 (ip), vehicle: saline with Tween-80) 95 % of control; (dose: 3.0 mg/kg/injection, schedule: Q01DX009 (ip), vehicle: saline with Tween-80) 100 % of control; (dose: 6.0 mg/kg/injection, schedule: Q01DX009 (ip), vehicle: saline with Tween-80) 109 % of control; (dose: 25.0 mg/kg/injection, schedule: Q01DX009 (ip), vehicle: saline) 95 % of control; under setting [2], 104 % of control; under setting [3], 95 % of control.
With `O=C1C(c2ccccc2)=C(c2ccc(Br)cc2)C2(c3ccc(Br)cc3)CC12c1ccccc1` (stereo unspecified), the T/C reads like this: (dose: 50.0 mg/kg/injection, schedule: Q01DX005 (ip), vehicle: Klucel + Tween-80) 91 % of control; (dose: 100.0 mg/kg/injection, schedule: Q01DX005 (ip), vehicle: Klucel + Tween-80) 88 % of control.
With `CC(C)(C)N=NNc1ccc([N+](=O)[O-])cc1`, the T/C is 106 % of control (dose: 12.5 mg/kg/injection, schedule: Q01DX009 (ip), vehicle: distilled water + Tween-80); 100 % of control (dose: 25.0 mg/kg/injection, schedule: Q01DX009 (ip), vehicle: distilled water + Tween-80); 93 % of control (dose: 50.0 mg/kg/injection, schedule: Q01DX009 (ip), vehicle: distilled water + Tween-80); 86 % of control (dose: 100.0 mg/kg/injection, schedule: Q01DX009 (ip), vehicle: distilled water + Tween-80); 96 % of control (dose: 200.0 mg/kg/injection, schedule: Q01DX009 (ip), vehicle: distilled water + Tween-80).
As to `Nc1ncnc2[nH]c(=S)[nH]c12`, the T/C is 110 % of control (dose: 1.56 mg/kg/injection, schedule: Q01DX005 (ip), vehicle: Klucel (hydroxypropylcellulose) (HPC)); 94 % of control (dose: 3.12 mg/kg/injection, schedule: Q01DX005 (ip), vehicle: Klucel (hydroxypropylcellulose) (HPC)); 99 % of control and 97 % of control under setting [4].
`COc1ccc2c(c1)C(c1cccc3ccccc13)OC2=O` (stereo unspecified): the T/C is 103 % of control under setting [4]; 92 % of control (dose: 12.5 mg/kg/injection, schedule: Q01DX005 (ip), vehicle: Klucel (hydroxypropylcellulose) (HPC)); 87 % of control (dose: 25.0 mg/kg/injection, schedule: Q01DX005 (ip), vehicle: Klucel (hydroxypropylcellulose) (HPC)); 90 % of control under setting [1].
On to `NC(N)=Nc1nc2ccccc2o1`, for which the T/C is 90 % of control (dose: 50.0 mg/kg/injection, schedule: Q04DX003 (ip), vehicle: Klucel (hydroxypropylcellulose) (HPC)); 100 % of control (dose: 100.0 mg/kg/injection, schedule: Q04DX003 (ip), vehicle: Klucel (hydroxypropylcellulose) (HPC)); 100 % of control (dose: 200.0 mg/kg/injection, schedule: Q04DX003 (ip), vehicle: Klucel (hydroxypropylcellulose) (HPC)).
In the case of `COc1ccc(C2CC(=O)c3c(O)cc(OC4OC(COC5OC(C)C(O)C(O)C5O)C(O)C(O)C4O)cc3O2)cc1O` (stereo unspecified), the T/C under setting [5] is 94 % of control; the T/C under setting [6] was 100 % of control; the T/C (dose: 200.0 mg/kg/injection, schedule: Q01DX005 (ip), vehicle: saline with Tween-80) is 92 % of control.
With `Cc1cc[n+](C2=C(Nc3ccccc3)C(=O)c3ccccc3C2=O)cc1`, the T/C by setting is: (dose: 12.5 mg/kg/injection, schedule: Q01DX005 (ip), vehicle: saline with Tween-80) 106 % of control; (dose: 25.0 mg/kg/injection, schedule: Q01DX005 (ip), vehicle: saline with Tween-80) 114 % of control; under setting [5], 116 % of control and 122 % of control; under setting [6], 118 % of control.
Take `O=C1CC(c2cccc(S(=O)(=O)O)c2)=NN1c1ccc([N+](=O)[O-])cn1`: the T/C by setting is: (dose: 100.0 mg/kg/injection, schedule: Q04DX003 (ip), vehicle: saline) 108 % of control; (dose: 200.0 mg/kg/injection, schedule: Q04DX003 (ip), vehicle: saline) 100 % of control; (dose: 400.0 mg/kg/injection, schedule: Q04DX003 (ip), vehicle: saline) 106 % of control.
Regarding `CCCCCCCCOCC(=O)OC`, the T/C is 106 % of control under setting [7], 107 % of control under setting [8] and 101 % of control under setting [9].
With `C[O][Sn]([O][Sn]([Cl])([c]1ccccc1)[c]1ccccc1)([c]1ccccc1)[c]1ccccc1`, the T/C reads like this: (dose: 50.0 mg/kg/injection, schedule: Q04DX003 (ip), vehicle: saline) 177 % of control; (dose: 100.0 mg/kg/injection, schedule: Q04DX003 (ip), vehicle: suspension in saline) 106 % of control.
Regarding `CN(C)C=Nc1ccccc1C#N`, the T/C by setting is: under setting [7], 105 % of control; under setting [8], 106 % of control; under setting [9], 97 % of control.
For `Cc1cccc(Oc2ccc(C(F)(F)F)cc2[N+](=O)[O-])c1C`, the T/C reads like this: under setting [2], 99 % of control; under setting [3], 99 % of control.
Regarding `Cc1ccc(NC(=S)NCC2CCCO2)cc1C` (stereo unspecified), the T/C (dose: 50.0 mg/kg/injection, schedule: Q01DX009 (ip), vehicle: Klucel (hydroxypropylcellulose) (HPC)) is 102 % of control and 98 % of control; the T/C (dose: 100.0 mg/kg/injection, schedule: Q01DX009 (ip), vehicle: Klucel (hydroxypropylcellulose) (HPC)) was 91 % of control; the T/C (dose: 200.0 mg/kg/injection, schedule: Q01DX009 (ip), vehicle: Klucel (hydroxypropylcellulose) (HPC)) was 92 % of control and 93 % of control and 97 % of control.
Regarding `Cc1c(Cl)ccc2c1NC(=O)C2(O)CC(=O)c1ccccc1` (stereo unspecified), the T/C (dose: 60.0 mg/kg/injection, schedule: Q01DX005 (ip), vehicle: Klucel (hydroxypropylcellulose) (HPC)) was 99 % of control; the T/C (dose: 120.0 mg/kg/injection, schedule: Q01DX005 (ip), vehicle: Klucel (hydroxypropylcellulose) (HPC)) was 97 % of control; the T/C (dose: 240.0 mg/kg/injection, schedule: Q01DX005 (ip), vehicle: Klucel (hydroxypropylcellulose) (HPC)) was 99 % of control.
